The text below walks through data of patent US20210361733A1, “Prevention and Treatment of SARS-CoV-2 Infection by Mentha piperita and Flos chrysanthemi Extracts alone, and their Combination” (priority 2021, published 2021).

Entries after “also recorded” stand apart in the source; their conditions may differ.

For data set [1], the system named is Vero cell line. Kind of data set: Cytotoxicity of herbal extracts on Vero cell line, MTT assay. The note with it: concentration not printed. For orientation: Formazan colour is commonly taken as a measure of viable cells.
The subject of data set [2] is SARS-CoV-2. The class given is cell-based.
Data set [3] concerns SARS-CoV-2. The settings on record: prophylactic/therapeutic (full-time) setting, at 37° and 4° C., by CPE and RT-PCR; cited from earlier work.

For `CCN(CC)CCCC(C)Nc1ccnc2cc(Cl)ccc12` (stereo not drawn) [Chloroquine phosphate], the “cytotoxicity / percent inhibition (MTT assay)” value in data set [1] was “non-toxic”; in data set [1] (listed as Chloroquine), “no inhibition”. Further, the “viral load inhibition (increasing Cq value, decreasing percent viral copy number)” value in data set [2] (reference drugs: Chloroquine phosphate 9.69 μM/mL, Remdesivir 8.297 μM/mL) is “viral load inhibition”. Besides, the “inhibition of SARS-CoV-2” value in data set [2] (viral full entry and post entry treatment points) is on record as “inhibition of SARS-CoV-2”.
As for `CCC(CC)COC(=O)[C@H](C)N[P@](=O)(OC[C@H]1O[C@@](C#N)(c2ccc3c(N)ncnn23)[C@H](O)[C@@H]1O)Oc1ccccc1` [Remdesivir], the “cytotoxicity / percent inhibition (MTT assay)” value in data set [1] is given as “no inhibition; also recorded: non-toxic”.
With `CCN(CCO)CCCC(C)Nc1ccnc2cc(Cl)ccc12` (stereo not drawn) [hydroxychloroquine], the antiviral activity result in data set [3] is listed as “significant antiviral activity”.
